The record followed here is patent US20210070748A1, “INHIBITORS OF BRUTONS TYROSINE KINASE” (Pharmacyclics LLC, priority 2015, published 2021).

A value given as a limit tells only on which side of the number the result lay.

For the assay, the target named is T1, BTK-WT (Homo sapiens, UniProt Q06187).
T1 construct: purified from insect cells as a full-length construct containing an N-terminal 6X-His tag; His6 (N); made in house; host or cells: insect cells (baculovirus Sf21 in Method B)
The assay is described as follows: Btk in vitro inhibitory activity (one of Method A TR-FRET, Method B electrophoretic mobility shift, Method C radiometric filter binding). It is filed as biochemical. To be noted: D-compounds panel data; read-out: IC50 BTK-WT. For orientation: A gel shift assay detects complexes by their altered migration in electrophoresis.

In general, IC50 refers to the midpoint of a concentration-inhibition curve.

T1 sequence (Q06187 whole entry): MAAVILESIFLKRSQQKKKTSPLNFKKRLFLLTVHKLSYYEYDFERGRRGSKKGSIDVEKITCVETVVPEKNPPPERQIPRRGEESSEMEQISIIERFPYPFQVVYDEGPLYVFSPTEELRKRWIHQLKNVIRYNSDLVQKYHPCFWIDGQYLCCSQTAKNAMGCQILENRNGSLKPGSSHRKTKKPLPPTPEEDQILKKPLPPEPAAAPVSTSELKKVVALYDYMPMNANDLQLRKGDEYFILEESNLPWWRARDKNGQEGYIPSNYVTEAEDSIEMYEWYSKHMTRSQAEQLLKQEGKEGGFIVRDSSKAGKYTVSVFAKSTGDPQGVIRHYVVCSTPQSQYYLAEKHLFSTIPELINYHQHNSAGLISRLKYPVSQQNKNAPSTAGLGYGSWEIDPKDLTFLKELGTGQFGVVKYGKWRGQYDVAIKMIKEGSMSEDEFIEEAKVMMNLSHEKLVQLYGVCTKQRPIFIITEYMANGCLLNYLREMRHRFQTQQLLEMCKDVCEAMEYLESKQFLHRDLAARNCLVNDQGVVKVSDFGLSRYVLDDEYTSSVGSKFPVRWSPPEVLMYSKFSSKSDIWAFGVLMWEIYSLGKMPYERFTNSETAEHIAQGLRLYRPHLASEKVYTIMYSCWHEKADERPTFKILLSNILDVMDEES

Consider `CC(=O)N1CCC(n2cc(Nc3nc(N4CCC[C@@H](NC(=O)c5ccc(C6CC6)cc5)[C@H]4C)cnc3C(N)=O)cn2)CC1` [Example D-283, 3-{[1-(1-acetylpiperidin-4-yl)-1H-pyrazol-4-yl]amino}-5-[(2R,3R)-3-(4-cyclopropylbenzamido)-2-methylpiperidin-1-yl]pyrazine-2-carboxamide], for which the IC50 was not above 10 nM.

On to `C[C@@H]1[C@H](NC(=O)c2ccc3c(c2)CCC(C)(C)O3)CCCN1c1cnc(C(N)=O)c(Nc2cnn(C)c2)n1` [Example D-258, 5-[(2R,3R)-3-(2,2-dimethyl-3,4-dihydro-2H-1-benzopyran-6-amido)-2-methylpiperidin-1-yl]-3-[(1-methyl-1H-pyrazol-4-yl)amino]pyrazine-2-carboxamide], for which the IC50 was not above 10 nM.

`CCn1cc(Nc2nc(N3CCC[C@@H](NC(=O)c4ccc(C5CC5)cc4)[C@H]3C)cnc2C(N)=O)cn1` [Example D-273, 5-[(2R,3R)-3-(4-cyclopropylbenzamido)-2-methylpiperidin-1-yl]-3-[(1-ethyl-1H-pyrazol-4-yl)amino]pyrazine-2-carboxamide]: the IC50 is not above 10 nM.

As to `C[C@@H]1[C@H](NC(=O)c2ccc(C(C)(C)O)cc2F)CCCN1c1nnc(C(N)=O)c(Nc2cnn(C)c2)n1` [Example D-308, 3-[(2R,3R)-3-[2-fluoro-4-(2-hydroxypropan-2-yl)benzamido]-2-methylpiperidin-1-yl]-5-[(1-methyl-1H-pyrazol-4-yl)amino]-1,2,4-triazine-6-carboxamide], the IC50 is not above 10 nM.

As for `C[C@@H]1[C@H](NC(=O)c2cc(C3CC3)n(C)n2)CCCN1c1cnc(C(N)=O)c(Nc2cnn(C)c2)n1` [Example D-253, 5-[(2R,3R)-3-(5-cyclopropyl-1-methyl-1H-pyrazole-3-amido)-2-methylpiperidin-1-yl]-3-[(1-methyl-1H-pyrazol-4-yl)amino]pyrazine-2-carboxamide], the IC50 is not above 10 nM.

As to `CCOCCOc1ccc(Nc2nc(N3CCC[C@@H](NC(=O)c4ccc(C5CC5)cc4)[C@H]3C)cnc2C(N)=O)cc1` [Example D-299, 5-[(2R,3R)-3-(4-cyclopropylbenzamido)-2-methylpiperidin-1-yl]-3-{[4-(2-ethoxyethoxy)phenyl]amino}pyrazine-2-carboxamide], the IC50 was in the range of 10 to 100 nM.

With `C[C@@H]1[C@H](NC(=O)c2cc(C(C)(C)C)n[nH]2)CCCN1c1cnc(C(N)=O)c(Nc2cnn(C)c2)n1` [Example D-244, 5-[(2R,3R)-3-(3-tert-butyl-1H-pyrazole-5-amido)-2-methylpiperidin-1-yl]-3-[(1-methyl-1H-pyrazol-4-yl)amino]pyrazine-2-carboxamide], the IC50 was not above 10 nM.

As to `C[C@@H]1[C@H](NC(=O)c2ccc(C(N)=O)cc2)CCCN1c1cnc(C(N)=O)c(Nc2cnn(C)c2)n1` [Example D-268, 1-N-[(2R,3R)-1-{5-carbamoyl-6-[(1-methyl-1H-pyrazol-4-yl)amino]pyrazin-2-yl}-2-methylpiperidin-3-yl]benzene-1,4-dicarboxamide], the IC50 was not above 10 nM.

As to `COCCN(C)Cc1cc(Nc2nc(N3CCC[C@@H](NC(=O)c4ccc(C5CC5)cc4)[C@H]3C)cnc2C(N)=O)sn1` [Example D-269, 5-[(2R,3R)-3-(4-cyclopropylbenzamido)-2-methylpiperidin-1-yl]-3-[(3-{[(2-methoxyethyl)(methyl)amino]methyl}-1,2-thiazol-5-yl)amino]pyrazine-2-carboxamide], the IC50 is not above 10 nM.

On to `C[C@@H]1[C@H](NC(=O)N(C)C)CCCN1c1cnc(C(N)=O)c(Nc2ccc(N3CCC(F)(F)CC3)cc2)n1` [Example D-306, 3-{[4-(4,4-difluoropiperidin-1-yl)phenyl]amino}-5-[(2R,3R)-3-[(dimethylcarbamoyl)amino]-2-methylpiperidin-1-yl]pyrazine-2-carboxamide], for which the IC50 is not above 10 nM.

Regarding `C[C@@H]1[C@H](NC(=O)c2ccc(C3CC3)cc2)CCCN1c1cnc(C(N)=O)c(NCC2=CCN(C)CC2)n1` [Example D-300, 5-[(2R,3R)-3-(4-cyclopropylbenzamido)-2-methylpiperidin-1-yl]-3-{[(1-methyl-1,2,3,6-tetrahydropyridin-4-yl)methyl]amino}pyrazine-2-carboxamide], the IC50 is more than 10000 nM.

With `CCN(C)C(=O)N[C@@H]1CCCN(c2cnc(C(N)=O)c(Nc3cnn(C)c3)n2)[C@@H]1C` [Example D-304, 5-[(2R,3R)-3-{[ethyl(methyl)carbamoyl]amino}-2-methylpiperidin-1-yl]-3-[(1-methyl-1H-pyrazol-4-yl)amino]pyrazine-2-carboxamide], the IC50 was not above 10 nM.

`C[C@@H]1[C@H](NC(=O)c2coc(C3CC3)n2)CCCN1c1cnc(C(N)=O)c(Nc2cnn(C)c2)n1` [Example D-257, 5-[(2R,3R)-3-(2-cyclopropyl-1,3-oxazole-4-amido)-2-methylpiperidin-1-yl]-3-[(1-methyl-1H-pyrazol-4-yl)amino]pyrazine-2-carboxamide]: the IC50 is not above 10 nM.

Regarding `CC(=O)N1CCN(c2ccc(Nc3nc(N4CCC[C@@H](NC(=O)c5ccc(C6CC6)cc5)[C@H]4C)cnc3C(N)=O)cc2)CC1` [Example D-295, 3-{[4-(4-acetylpiperazin-1-yl)phenyl]amino}-5-[(2R,3R)-3-(4-cyclopropylbenzamido)-2-methylpiperidin-1-yl]pyrazine-2-carboxamide], the IC50 is not above 10 nM.

Consider `C[C@@H]1[C@H](NC(=O)c2ccc(C3CC3)cc2)CCCN1c1cnc(C(N)=O)c(Nc2cnn(CCO)c2)n1` [Example D-281, 5-[(2R,3R)-3-(4-cyclopropylbenzamido)-2-methylpiperidin-1-yl]-3-{[I-(2-hydroxyethyl)-1H-pyrazol-4-yl]amino}pyrazine-2-carboxamide], for which the IC50 is not above 10 nM.

As to `C[C@@H]1[C@H](NC(=O)c2ccc(C3CC3)cc2F)CCCN1c1cnc(C(N)=O)c(Nc2ccc(N3CCNCC3)c(F)c2)n1` [Example D-313, 5-[(2R,3R)-3-(4-cyclopropyl-2-fluorobenzamido)-2-methylpiperidin-1-yl]-3-{[3-fluoro-4-(piperazin-1-yl)phenyl]amino}pyrazine-2-carboxamide], the IC50 was not above 10 nM.

With `C[C@@H]1[C@H](NC(=O)c2ccc(C3CC3)cc2)CCCN1c1cnc(C(N)=O)c(Nc2ccc3c(c2)OC(F)(F)O3)n1` [Example D-315, 5-[(2R,3R)-3-(4-cyclopropylbenzamido)-2-methylpiperidin-1-yl]-3-[(2,2-difluoro-2H-1,3-benzodioxol-5-yl)amino]pyrazine-2-carboxamide], the IC50 is 1000 to 10000 nM.

As to `C[C@@H]1[C@H](NC(=O)c2cc3c(n2C)CC(C)(C)C3)CCCN1c1cnc(C(N)=O)c(Nc2cnn(C)c2)n1` [Example D-19, 3-[(1-methyl-1H-pyrazol-4-yl)amino]-5-[(2R,3R)-2-methyl-3-{1,5,5-trimethyl-1H,4H,5H,6H-cyclopenta[b]pyrrole-2-amido}piperidin-1-yl]pyrazine-2-carboxamide], the IC50 was not above 10 nM.

Regarding `C[C@@H]1[C@H](NC(=O)c2ccc(C3CC3)nc2)CCCN1c1cnc(C(N)=O)c(Nc2ccc(OC3CCOCC3)cc2)n1` [Example D-309, 5-[(2R,3R)-3-(6-cyclopropylpyridine-3-amido)-2-methylpiperidin-1-yl]-3-{[4-(oxan-4-yloxy)phenyl]amino}pyrazine-2-carboxamide], the concentration for half-maximal inhibition (IC50) is not above 10 nM.
